This note sets out measurements from paper PMC12120022, “Discovery and chemical optimisation of a potent, Bi-cyclic antimicrobial inhibitor of Escherichia coli PBP3” (Communications Biology, 2025).

As usually defined, the Kd is the equilibrium constant for the complex coming apart.

Where a SMILES comes first, the peptide text is derived from it. Some results are limits rather than exact numbers.

T1 sequence (P0AD68 60-588): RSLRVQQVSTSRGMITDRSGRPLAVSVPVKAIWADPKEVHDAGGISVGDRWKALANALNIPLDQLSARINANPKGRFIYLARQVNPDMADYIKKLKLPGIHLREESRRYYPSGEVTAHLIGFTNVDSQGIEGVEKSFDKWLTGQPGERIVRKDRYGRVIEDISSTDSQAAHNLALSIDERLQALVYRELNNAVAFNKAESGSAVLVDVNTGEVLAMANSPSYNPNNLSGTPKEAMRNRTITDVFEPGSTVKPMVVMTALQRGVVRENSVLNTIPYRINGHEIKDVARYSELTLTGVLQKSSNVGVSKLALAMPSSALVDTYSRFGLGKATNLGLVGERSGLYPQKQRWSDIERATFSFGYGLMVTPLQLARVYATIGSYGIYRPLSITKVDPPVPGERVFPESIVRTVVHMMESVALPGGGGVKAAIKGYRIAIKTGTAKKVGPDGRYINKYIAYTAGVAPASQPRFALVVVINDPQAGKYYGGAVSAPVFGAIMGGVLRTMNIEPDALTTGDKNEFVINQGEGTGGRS

The first experiment has as its target T1, EcPBP3 (Escherichia coli, UniProt P0AD68).
T1 construct: For assays, selections and SPR a construct with residues 60–588 which has the N-terminal domain, but not the transmembrane helix, was used; made in house
The experiment in a line: SPR binding assay on immobilised EcPBP3. The following applies: 37 °C, kinetic fitting; NB = no binding at 2500 nM (Tables S-4, S-5) or 5000 nM (Table 1); read-out: Kd (nM) by SPR (geomean). Here is the method:
Surface plasmon resonance (SPR) assays were performed using EcPBP3 immobilized on CM5 sensor chips (GE Healthcare) via amine-coupling chemistry in assay buffer (10 mM HEPES pH 8.0, 200 mM NaCl, 0.05% (v/v) surfactant P20). The chip surface was activated by injection (10 μL min^–1) of 0.4 M EDC and 0.1 M NHS (in a 1:1 ratio) with a 7 min contact time. Protein was diluted to 25 μg mL^–1 in 10 mM MOPS (pH 7.0) and injected over the activated sensor chip surface to reach immobilization of 1500-2500 response units. Excess hydroxysuccinimidyl groups on the chip surface were deactivated by injection (10 μL min^–1) of 1 M ethanolamine hydrochloride pH 8.0 with a 7 min contact time. Reference flow cells were prepared as described, but without ligand (EcPBP3 protein).
Binding analysis runs were performed at 37 °C in running buffer (10 mM HEPES pH 8.0, 200 mM NaCl, 0.05% (w/v) Tween-20, 2% (v/v) DMSO). Test compounds (and control runs of buffer only) were injected in running buffer over the EcPBP3 chip and reference flow cell, at flow rate of 50 μL min^–1 for 150 s contact time and 2400 s dissociation time. Each injection was followed by a wash with 50% (v/v) DMSO. All compounds were tested in at least two independent biological replicates unless otherwise stated.
Raw sensorgrams data were solvent-corrected, reference-subtracted and blank-buffer-subtracted (double-referencing) before kinetic and affinity analysis to account for non-specific binding and injection artifacts. Equilibrium dissociation constant (Kd) values was determined using the Biacore™ Insight Evaluation Software (version 4.0.8 or version 5.0.17) using kinetic fitting. Kd values presented are the geometric mean of at least two biological replicates.
For orientation: In SPR one partner is held on a chip, and binding of the other changes the refractive index at the surface.
`COc1ccc2[nH]cc(C[C@@H]3NC(=O)[C@@H]4CCCN4C(=O)[C@@H]4CSCCC(=O)N5CN(CN(C5)C(=O)CCSC[C@H](NC(=O)[C@H](C)N)C(=O)N[C@@H](CO)C(=O)N[C@@H](Cc5ccccc5)C(=O)N5CCC[C@H]5C(=O)N[C@@H](CCCCN)C(=O)N4)C(=O)CCSC[C@@H](C(=O)N[C@@H](C)C(N)=O)NC(=O)CNC(=O)[C@H](CCC(=O)O)NC(=O)[C@H](C(C)C)NC3=O)c2c1` [Peptide 63]: the Kd was 175 nM.

`Cc1ccccc1C[C@@H]1NC(=O)[C@H](CO)NC(=O)[C@@H](NC(=O)[C@H](C)N)CSCCC(=O)N2CN3CN(C2)C(=O)CCSC[C@H](NC(=O)[C@H](CCCCN)NC(=O)[C@@H]2CCCN2C1=O)C(=O)N1CCC[C@H]1C(=O)N[C@@H](Cc1c[nH]c2ccccc12)C(=O)N[C@@H](C(C)C)C(=O)N[C@@H](CCC(=O)O)C(=O)NCC(=O)N[C@H](C(=O)N[C@@H](C)C(N)=O)CSCCC3=O` [Peptide 57]: the Kd came out at 22.3 nM.

In the case of `CC(C)[C@@H]1NC(=O)[C@H](Cc2c[nH]c3ccccc23)NC(=O)[C@@H]2CCCN2C(=O)[C@@H]2CSCCC(=O)N3CN(CN(C3)C(=O)CCSC[C@H](NC(=O)[C@H](C)N)C(=O)N[C@@H](CO)C(=O)N[C@@H](CCc3ccccc3)C(=O)N3CCC[C@H]3C(=O)N[C@@H](CCCCN)C(=O)N2)C(=O)CCSC[C@@H](C(=O)N[C@@H](C)C(N)=O)NC(=O)CNC(=O)[C@H](CCC(=O)O)NC1=O` [Peptide 61], the Kd was found to be 232 nM.

With `CC(C)[C@@H]1NC(=O)[C@H](Cc2c[nH]c3cc(Cl)ccc23)NC(=O)[C@@H]2CCCN2C(=O)[C@@H]2CSCCC(=O)N3CN(CN(C3)C(=O)CCSC[C@H](NC(=O)[C@H](C)N)C(=O)N[C@@H](CO)C(=O)N[C@@H](Cc3ccccc3)C(=O)N3CCC[C@H]3C(=O)N[C@@H](CCCCN)C(=O)N2)C(=O)CCSC[C@@H](C(=O)N[C@@H](C)C(N)=O)NC(=O)CNC(=O)[C@H](CCC(=O)O)NC1=O` [Peptide 65], the Kd stood at 0.269 nM.

With `CC(C)[C@@H]1NC(=O)[C@H](Cc2c[nH]c3ccccc23)NC(=O)[C@@H]2CCCN2C(=O)[C@@H]2CSCCC(=O)N3CN(CN(C3)C(=O)CCSC[C@H](NC(=O)[C@H](C)N)C(=O)N[C@@H](CO)C(=O)N[C@@H](Cc3ccccc3F)C(=O)N3CCC[C@H]3C(=O)N[C@@H](CCCCN)C(=O)N2)C(=O)CCSC[C@@H](C(=O)N[C@@H](C)C(N)=O)NC(=O)CNC(=O)[C@H](CCC(=O)O)NC1=O` [Peptide 56], the Kd was found to be 56.6 nM.

`CC(C)[C@@H]1NC(=O)[C@H](Cc2c[nH]c3ccccc23)NC(=O)[C@@H]2CCCN2C(=O)[C@@H]2CSCCC(=O)N3CN(CN(C3)C(=O)CCSC[C@H](NC(=O)[C@H](C)N)C(=O)N[C@@H](CO)C(=O)N[C@@H](Cc3c(F)c(F)c(F)c(F)c3F)C(=O)N3CCC[C@H]3C(=O)N[C@@H](CCCCN)C(=O)N2)C(=O)CCSC[C@@H](C(=O)N[C@@H](C)C(N)=O)NC(=O)CNC(=O)[C@H](CCC(=O)O)NC1=O` [Peptide 54]: the dissociation constant (Kd) is 701 nM.

On to `CC(C)[C@@H]1NC(=O)[C@H](Cc2c[nH]c3ccccc23)NC(=O)[C@@H]2CCCN2C(=O)[C@@H]2CSCCC(=O)N3CN(CN(C3)C(=O)CCSC[C@H](NC(=O)[C@H](C)N)C(=O)N[C@@H](CO)C(=O)N[C@@H](Cc3ccccn3)C(=O)N3CCC[C@H]3C(=O)N[C@@H](CCCCN)C(=O)N2)C(=O)CCSC[C@@H](C(=O)N[C@@H](C)C(N)=O)NC(=O)CNC(=O)[C@H](CCC(=O)O)NC1=O` [Peptide 60] (HELM PEPTIDE1{A.C.S.[O=C([C@H](Cc1ccccn1)N[*:1])[*:2]].P.K.C.P.W.V.E.G.C.A.[am]}|CHEM1{[O=C(CC[*:1])N1CN(C(=O)CC[*:2])CN(C(=O)CC[*:3])C1]}$PEPTIDE1,CHEM1,2:R3-1:R1|PEPTIDE1,CHEM1,7:R3-1:R2|PEPTIDE1,CHEM1,13:R3-1:R3$$$V2.0), for which the dissociation constant (Kd) amounted to 122 nM.

As for `C[C@H](N)C(=O)N[C@H]1CSCCC(=O)N2CN3CN(C2)C(=O)CCSC[C@H](NC(=O)[C@H](CCCCN)NC(=O)[C@@H]2CCCN2C(=O)[C@H](Cc2ccccc2)NC(=O)[C@H](CO)NC1=O)C(=O)N1CCC[C@H]1C(=O)N[C@@H](Cc1c[nH]c2ccccc12)C(=O)N[C@@H](C1CCC1)C(=O)N[C@@H](CCC(=O)O)C(=O)NCC(=O)N[C@H](C(=O)N[C@@H](C)C(N)=O)CSCCC3=O` [Peptide 68] (HELM PEPTIDE1{A.C.S.F.P.K.C.P.W.[O=C([C@@H](N[*:1])C1CCC1)[*:2]].E.G.C.A.[am]}|CHEM1{[O=C(CC[*:1])N1CN(C(=O)CC[*:2])CN(C(=O)CC[*:3])C1]}$PEPTIDE1,CHEM1,2:R3-1:R1|PEPTIDE1,CHEM1,7:R3-1:R2|PEPTIDE1,CHEM1,13:R3-1:R3$$$V2.0), the dissociation constant (Kd) was found to be 187 nM.

On to `CC(C)[C@@H]1NC(=O)[C@H](Cc2c[nH]c3cc(F)ccc23)NC(=O)[C@@H]2CCCN2C(=O)[C@@H]2CSCCC(=O)N3CN(CN(C3)C(=O)CCSC[C@H](NC(=O)[C@H](C)N)C(=O)N[C@@H](CO)C(=O)N[C@@H](Cc3ccccc3)C(=O)N3CCC[C@H]3C(=O)N[C@@H](CCCCN)C(=O)N2)C(=O)CCSC[C@@H](C(=O)N[C@@H](C)C(N)=O)NC(=O)CNC(=O)[C@H](CCC(=O)O)NC1=O` [Peptide 66], for which the Kd was found to be 0.489 nM.

With `CC(C)[C@@H]1NC(=O)[C@H](Cc2c[nH]c3ccccc23)NC(=O)[C@H](C)NC(=O)[C@@H]2CSCCC(=O)N3CN(CN(C3)C(=O)CCSC[C@H](NC(=O)[C@H](C)N)C(=O)N[C@@H](CO)C(=O)N[C@@H](Cc3ccccc3)C(=O)N3CCC[C@H]3C(=O)N[C@@H](CCCCN)C(=O)N2)C(=O)CCSC[C@@H](C(=O)N[C@@H](C)C(N)=O)NC(=O)CNC(=O)[C@H](CCC(=O)O)NC1=O` [Peptide 20], the dissociation constant (Kd) worked out at 1380 nM.

As to `CC(C)[C@@H]1NC(=O)[C@H](Cc2c[nH]c3ccccc23)NC(=O)[C@@H]2CCCN2C(=O)[C@@H]2CSCCC(=O)N3CN(CN(C3)C(=O)CCSC[C@H](NC(=O)[C@H](C)N)C(=O)N[C@@H](CO)C(=O)N[C@@H](Cc3ccncc3)C(=O)N3CCC[C@H]3C(=O)N[C@@H](CCCCN)C(=O)N2)C(=O)CCSC[C@@H](C(=O)N[C@@H](C)C(N)=O)NC(=O)CNC(=O)[C@H](CCC(=O)O)NC1=O` [Peptide 59] (HELM PEPTIDE1{A.C.S.[O=C([C@H](Cc1ccncc1)N[*:1])[*:2]].P.K.C.P.W.V.E.G.C.A.[am]}|CHEM1{[O=C(CC[*:1])N1CN(C(=O)CC[*:2])CN(C(=O)CC[*:3])C1]}$PEPTIDE1,CHEM1,2:R3-1:R1|PEPTIDE1,CHEM1,7:R3-1:R2|PEPTIDE1,CHEM1,13:R3-1:R3$$$V2.0), the Kd stood at 121 nM.

On to `Cc1ccc(C[C@@H]2NC(=O)[C@H](CO)NC(=O)[C@@H](NC(=O)[C@H](C)N)CSCCC(=O)N3CN4CN(C3)C(=O)CCSC[C@H](NC(=O)[C@H](CCCCN)NC(=O)[C@@H]3CCCN3C2=O)C(=O)N2CCC[C@H]2C(=O)N[C@@H](Cc2c[nH]c3ccccc23)C(=O)N[C@@H](C(C)C)C(=O)N[C@@H](CCC(=O)O)C(=O)NCC(=O)N[C@H](C(=O)N[C@@H](C)C(N)=O)CSCCC4=O)cc1` [Peptide 58], for which the dissociation constant (Kd) is 5.06 nM.

As for `C[C@H](N)C(=O)N[C@H]1CSCCC(=O)N2CN3CN(C2)C(=O)CCSC[C@H](NC(=O)[C@H](CCCCN)NC(=O)[C@@H]2CCCN2C(=O)[C@H](Cc2ccccc2)NC(=O)[C@H](CO)NC1=O)C(=O)N1CCC[C@H]1C(=O)N[C@@H](Cc1c[nH]c2ccccc12)C(=O)N[C@@H](C(C)(C)C)C(=O)N[C@@H](CCC(=O)O)C(=O)NCC(=O)N[C@H](C(=O)N[C@@H](C)C(N)=O)CSCCC3=O` [Peptide 67] (HELM PEPTIDE1{A.C.S.F.P.K.C.P.W.[CC(C)(C)[C@H](N[*:1])C(=O)[*:2]].E.G.C.A.[am]}|CHEM1{[O=C(CC[*:1])N1CN(C(=O)CC[*:2])CN(C(=O)CC[*:3])C1]}$PEPTIDE1,CHEM1,2:R3-1:R1|PEPTIDE1,CHEM1,7:R3-1:R2|PEPTIDE1,CHEM1,13:R3-1:R3$$$V2.0), the equilibrium dissociation constant (Kd) came to 574 nM.

On to `CC(C)[C@@H]1NC(=O)[C@H](Cc2c[nH]c3ccccc23)NC(=O)[C@@H]2CCCN2C(=O)[C@@H]2CSCCC(=O)N3CN(CN(C3)C(=O)CCSC[C@H](NC(=O)[C@H](C)N)C(=O)N[C@@H](CO)C(=O)N[C@@H](C)C(=O)N3CCC[C@H]3C(=O)N[C@@H](CCCCN)C(=O)N2)C(=O)CCSC[C@@H](C(=O)N[C@@H](C)C(N)=O)NC(=O)CNC(=O)[C@H](CCC(=O)O)NC1=O` [Peptide 17], for which the Kd was above 2500 nM.

Regarding `CC(C)[C@@H]1NC(=O)[C@H](Cc2cnc3ccccc3c2)NC(=O)[C@@H]2CCCN2C(=O)[C@@H]2CSCCC(=O)N3CN(CN(C3)C(=O)CCSC[C@H](NC(=O)[C@H](C)N)C(=O)N[C@@H](CO)C(=O)N[C@@H](Cc3ccccc3)C(=O)N3CCC[C@H]3C(=O)N[C@@H](CCCCN)C(=O)N2)C(=O)CCSC[C@@H](C(=O)N[C@@H](C)C(N)=O)NC(=O)CNC(=O)[C@H](CCC(=O)O)NC1=O` [Peptide 62], the Kd came out at 27 nM.

Still in this experiment, the particulars now being: hydrophobic extension of Trp6, relative to parent peptide.
For the molecule `CC(C)[C@@H]1NC(=O)[C@H](Cc2c[nH]c3cc(Cl)ccc23)NC(=O)[C@@H]2CCCN2C(=O)[C@@H]2CSCCC(=O)N3CN(CN(C3)C(=O)CCSC[C@H](NC(=O)[C@H](C)N)C(=O)N[C@@H](CO)C(=O)N[C@@H](Cc3ccccc3)C(=O)N3CCC[C@H]3C(=O)N[C@@H](CCCCN)C(=O)N2)C(=O)CCSC[C@@H](C(=O)N[C@@H](C)C(N)=O)NC(=O)CNC(=O)[C@H](CCC(=O)O)NC1=O` [Peptide 65], the “Improvement in binding affinity” value is given as “More than 10 fold”.

Take `CC(C)[C@@H]1NC(=O)[C@H](Cc2c[nH]c3cc(F)ccc23)NC(=O)[C@@H]2CCCN2C(=O)[C@@H]2CSCCC(=O)N3CN(CN(C3)C(=O)CCSC[C@H](NC(=O)[C@H](C)N)C(=O)N[C@@H](CO)C(=O)N[C@@H](Cc3ccccc3)C(=O)N3CCC[C@H]3C(=O)N[C@@H](CCCCN)C(=O)N2)C(=O)CCSC[C@@H](C(=O)N[C@@H](C)C(N)=O)NC(=O)CNC(=O)[C@H](CCC(=O)O)NC1=O` [Peptide 66]: the “Improvement in binding affinity” value is listed as “More than 10 fold”.
